From patent US10016414B2, “Modulation of ubiquitination of synaptic proteins for the treatment of neurodegenerative and psychiatric disorders” (UNIVERSITY OF MASSACHUSETTS, priority 2010, dated 2018)

What was measured:
[1] = test system: surface GluA1 (AMPAR) in hippocampal neurons; assay: Aβ-induced AMPAR endocytosis: surface GluA1 in cultured hippocampal neurons; assay type: cell-based, rat; conditions: for GluA1 surface expression (GluA1 puncta normalized to SV2 puncta and to naïve cultures): 2 hrs, naïve 100%±4%, n=3
Description: A. Micrograph showing GluA2 surface expression upon Aβ treatment in the presence or absence of Nutlin-3. Rat hippocampal neurons were cultured, and treated with Aβ or Aβ together with either Nutlin-3 (5 μM) or HLI373 (15 μM) for 2 hours. The final concentration of Aβ was 0.3 ng/mL. Naïve and Nutlin-3 and HLI373 treatments, without Aβ treatment, were used as controls. Surface expression of AMPARs was measured by labeling the cultured neurons in vivo with an antibody to the AMPAR subunit GluA1, followed by confocal microscopy and immunofluorescence quantification by MetaMorph. The number of GluA1 puncta was normalized to SV2 puncta (a presynaptic marker) and to the value in control naïve cultures. […] Scale bar=5 μm. B. Bar graph showing quantification of the percentage of surface GluA1 in response to the various treatment described in A. Results are presented as mean±SEM.
Soluble amyloid beta (Aβ) peptides contribute directly to synapse loss and decreased dendritic spine density and glutamate receptors at the synapse. Moreover, Aβ has been reported to induce AMPAR internalization in cultured neurons. To evaluate the effect of Mdm2 inhibitors on this process, cultured rat hippocampal neurons were treated for 2 hrs with Aβ (or Aβ together with either Nutlin-3 (5 μM) or HLI-373 (15 μM). Aβ can be prepared from 7PA2 Chinese hamster ovary (CHO) cells stably expressing human amyloid precursor protein (APP)751 containing the V717 mutation (Walsh et al., 2005; Shankar et al., 2007; Shankar et al., 2011), and is also available commercially from, e.g., rPeptide (Bogart, G A). The concentration of Aβ in the hippocampal cultures was 0.3 ng/mL. Naïve and Nutlin-3 and HLI-373 treatments were used as controls. Surface expression of AMPARs was measured by labeling the cultured neurons in vivo with an antibody to the AMPAR subunit GluA1, followed by confocal microscopy and immunofluorescence quantification by MetaMorph. The number of GluA1 puncta was normalized to SV2 puncta (a presynaptic marker) and to the value in control naïve cultures (see FIGS. 8A and B).
Minimum inhibitor concentrations of Nutlin-3a or HLI-373, as well as any other Mdm2 inhibitor identified using the screens described supra, can be readily determined by using different ranges of inhibitor concentrations and assessing the effects of the particular concentrations on surface expression of AMPARs. Similar results are expected with other inhibitors of PSD-95 ubiquitination by Mdm2, such as PSD-95 inhibitors.

[2] = oral gavage, 100 mg/kg once daily; between 1-8 hours after administration (Zhang et al., 2011); cited from earlier work
[3] = test system: surface GluA2 (AMPAR) in hippocampal neurons; assay: NMDA-induced AMPAR endocytosis: surface GluA2 by antibody feeding in hippocampal cultures; assay type: cell-based, rat; conditions: inhibitor 5 μM for 30 min before NMDA 100 μM for 3 min, then 15 min; naïve 100%±9.47%; n=3
Description: A. Micrograph showing GluA2 surface expression upon NMDA treatment in the presence or absence of Nutlin-3. Cultured hippocampal neurons were subjected to an antibody feeding protocol using an antibody that recognizes an extracellular domain of GluA2. The neurons were subsequently pretreated with Nutlin-3 (5 μM for 30 min) prior to NMDA treatment (100 μM for 3 min), followed by agonist washout. Neurons were incubated for an additional 15 min (with or without Nutlin-3) before immunocytochemical analysis of PSD-95 and surface GluA2 by confocal microscopy.
B. A bar graph depicting the proportion of GluA2 found at the surface of cultured hippocampal neurons upon treatment with or without NMDA, in the presence or absence of Nutlin-3. Results are presented as mean±SEM.
Brief stimulation of NMDARs induces AMPAR endocytosis in cultured neurons (Colledge et al., 2003; Bhattacharyya et al., 2009). To determine whether Nutlin-3a antagonizes NMDA-induced AMPAR endocytosis, measured as loss of surface AMPAR staining, the surface expression of GluA2 (a subunit of AMPARs in rat hippocampal cultures) was assessed. Surface GluA2 were labeled in vivo by an antibody feeding protocol using an antibody that recognizes an extracellular domain of GluA2 (Ehlers, 2000; Lin et al., 2000; Bhattacharyya et al., 2009). Neurons were pretreated with Nutlin-3a (5 μM for 30 min) prior to NMDA treatment. After brief stimulation with NMDA (100 μM for 3 min) and agonist washout, neurons were incubated for an additional 15 min (with or without Nutlin-3a) before immunocytochemical analysis of PSD-95 and surface GluA2 by confocal microscopy under the same settings. Immunostained puncta were quantified using MetaMorph software (3 neurons from 2 coverslips with approximately 450 puncta analyzed/condition) and the number of GluA2 puncta was normalized to the number of PSD-95 puncta.
Naïve and NMDA-stimulated conditions were used as controls. […]

[4] = target: T1, interaction between PSD-95 and Mdm2 (Mus musculus, UniProt P23804); assay: Mdm2 binding to PSD-95 in acute forebrain slices (Mdm2 immunoprecipitation, PSD-95 Western blot); assay type: cell-based; conditions: Nutlin-3 5 μM for 30 min, normalized to absence of Nutlin-3
T1 construct: from tissue; host or cells: acute mouse forebrain slices
T1 sequence (P23804 whole entry): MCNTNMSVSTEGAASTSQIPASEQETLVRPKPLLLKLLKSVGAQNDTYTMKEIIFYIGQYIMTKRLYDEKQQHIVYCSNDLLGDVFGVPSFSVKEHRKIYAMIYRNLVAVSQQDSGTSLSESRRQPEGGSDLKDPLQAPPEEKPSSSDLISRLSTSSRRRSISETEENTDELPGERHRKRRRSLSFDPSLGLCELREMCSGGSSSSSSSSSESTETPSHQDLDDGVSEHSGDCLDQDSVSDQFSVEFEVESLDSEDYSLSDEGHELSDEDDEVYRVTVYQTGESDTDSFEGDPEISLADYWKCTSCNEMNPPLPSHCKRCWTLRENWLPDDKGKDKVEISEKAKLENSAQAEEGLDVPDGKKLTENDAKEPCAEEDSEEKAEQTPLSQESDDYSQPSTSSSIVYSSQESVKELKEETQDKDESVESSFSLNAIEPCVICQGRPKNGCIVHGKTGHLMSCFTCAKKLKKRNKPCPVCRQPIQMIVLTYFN
Description: A. Immunoblot showing the interaction between Mdm2 and PSD-95 in the presence or absence of the Mdm2 inhibitor Nutlin-3. Acute mouse forebrain slices were treated with Nutlin-3 (5 μM for 30 min), followed by immunoprecipitation of Mdm2. Immunoprecipitates were subjected to Western blot analysis with anti-PSD-95 and anti-Mdm2 antibodies. IgG: control immunoprecipitation with mouse IgG.
B. A bar graph depicting the proportion of PSD-95 bound to Mdm2 from FIG. 6A, normalized to levels of PSD-95 bound to Mdm2 in the absence of Nutlin-3. There was a 60% decrease in the interaction of PSD-95 with Mdm2.
To test this hypothesis, acute mouse forebrain slices were prepared and subjected to treatment with or without Nutlin-3. The interaction between PSD95 and Mdm2 was assessed by immunoprecipitation of Mdm2, followed by Western blot analysis to assess the extent of PSD-95 binding. Consistent with PSD-95 binding to the same region of Mdm2 as other Mdm2 substrates, Nutlin-3 decreased the interaction between PSD-95 with Mdm2 by 60% (FIGS. 6A and B).

Row | SMILES | GluA1 surface expression (GluA1 puncta normalized to SV2 puncta and to naïve cultures) ([1]; co-treatment with Aβ 0.3 ng/mL, Nutlin 5 μM, HLI373 15 μM) | concentration in brain tissue [2] | effect on loss of surface GluA1 induced by Aβ ([1]; Aβ 0.3 ng/mL, 2 hours, Nutlin-3 5 μM, HLI373 15 μM) | GluA1 surface expression (GluA1 puncta normalized to SV2 puncta and to naïve cultures) ([1]; inhibitor alone, without Aβ, Nutlin-3 5 μM, HLI-373 15 μM) | GluA2 surface expression (GluA2 puncta normalized to PSD-95 puncta, versus naïve control) [3] | decrease in the interaction of PSD-95 with Mdm2 [4]
1 | COc1ccc(C2=NC(c3ccc(Cl)cc3)C(c3ccc(Cl)cc3)N2C(=O)N2CCNC(=O)C2)c(OC(C)C)c1 (single isomer, unassigned; (-)) [Nutlin-3a, (−)-4-(4,5-bis(4-chlorophenyl)-2-(2-isopropoxy-4-methoxyphenyl)-4,5-dihydro-1H-imidazole-1-carbonyl)piperazin-2-one] | 152.29%±19.88% | 1000 to 2000 nM | – | – | – | –
2 | COc1ccc(C2=N[C@@H](c3ccc(Cl)cc3)[C@@H](c3ccc(Cl)cc3)N2C(=O)N2CCNC(=O)C2)c(OC(C)C)c1 [Nutlin-3] | – | – | prevented the loss of surface GluA1 induced by Aβ treatment | 90.6%±3.71% | 60.86±3.98% | 60%
